# Experimental data as given in PubChem BioAssay (NCI).
# Values joined by “and” are separate entries in the source; they are usually repeats but may differ in a detail not shown here. Equal values may be shown once.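 Assay format: 96-well plates, 48-hour exposure. GI50 marks 50% less growth. TGI marks complete inhibition of growth.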
# Key:
# Assay in all cases: NCI-60 cell line screen, 48 h
# RXF 393 renal = test system: RXF 393 renal
# K-562 leukemia = test system: K-562 leukemia
# IGROV1 ovarian = test system: IGROV1 ovarian
# NCI-H522 lung = test system: NCI-H522 lung
# OVCAR-8 ovarian = test system: OVCAR-8 ovarian
# HOP-92 NSCLC = test system: HOP-92 NSCLC
# HT29 colon = test system: HT29 colon
# HL-60(TB) leukemia = test system: HL-60(TB) leukemia
# MALME-3M melanoma = test system: MALME-3M melanoma
# CCRF-CEM leukemia = test system: CCRF-CEM leukemia
# OVCAR-5 ovarian = test system: OVCAR-5 ovarian
# SK-MEL-5 melanoma = test system: SK-MEL-5 melanoma
# SNB-19 CNS = test system: SNB-19 CNS
# UACC-257 melanoma = test system: UACC-257 melanoma
# 786-0 renal = test system: 786-0 renal
# SK-OV-3 ovarian = test system: SK-OV-3 ovarian
# SK-MEL-2 melanoma = test system: SK-MEL-2 melanoma
# KM12 colon = test system: KM12 colon
# SF-295 CNS = test system: SF-295 CNS
# HCT-15 colon = test system: HCT-15 colon
# SF-539 CNS = test system: SF-539 CNS
# NCI-H226 lung = test system: NCI-H226 lung
# SK-MEL-28 melanoma = test system: SK-MEL-28 melanoma
# OVCAR-3 ovarian = test system: OVCAR-3 ovarian
# RPMI-8226 leukemia = test system: RPMI-8226 leukemia
# COLO 205 colon = test system: COLO 205 colon
# CAKI-1 renal = test system: CAKI-1 renal
# MOLT-4 leukemia = test system: MOLT-4 leukemia
# OVCAR-4 ovarian = test system: OVCAR-4 ovarian
# SNB-75 CNS = test system: SNB-75 CNS
# UO-31 renal = test system: UO-31 renal
# A549 NSCLC = test system: A549 NSCLC
# SN12C renal = test system: SN12C renal
# HCT-116 colon = test system: HCT-116 colon
# LOX IMVI melanoma = test system: LOX IMVI melanoma
# MDA-MB-435 = test system: MDA-MB-435
# SF-268 CNS = test system: SF-268 CNS
# TK-10 renal = test system: TK-10 renal
# NCI/ADR-RES ovarian = test system: NCI/ADR-RES ovarian
# UACC-62 melanoma = test system: UACC-62 melanoma
# MCF7 breast = test system: MCF7 breast
# U251 CNS = test system: U251 CNS
# NCI-H23 lung = test system: NCI-H23 lung
# SW-620 colon = test system: SW-620 colon
# A498 renal = test system: A498 renal
# HOP-62 NSCLC = test system: HOP-62 NSCLC
# EKVX NSCLC = test system: EKVX NSCLC
# HOP-18 NSCLC = test system: HOP-18 NSCLC
# HCC-2998 colon = test system: HCC-2998 colon
# NCI-H460 lung = test system: NCI-H460 lung
# PC-3 prostate = test system: PC-3 prostate
# T-47D breast = test system: T-47D breast
# MDA-MB-231 breast = test system: MDA-MB-231 breast
# HS 578T breast = test system: HS 578T breast
# DU-145 prostate = test system: DU-145 prostate
# ACHN renal = test system: ACHN renal
# SR leukemia = test system: SR leukemia
# MDA-N = test system: MDA-N
# BT-549 breast = test system: BT-549 breast
# M14 melanoma = test system: M14 melanoma
smiles,measurement,setting,value
CO[C@H](C(=O)[C@@H](O)[C@@H](C)O)[C@@H]1Cc2cc3cc(OC4CC(OC5CC(O)C(O)C(C)O5)C(O)C(C)O4)c(C)c(O)c3c(O)c2C(=O)[C@H]1OC1CC(OC2CC(OC3CC(C)(O)C(O)C(C)O3)C(O)C(C)O2)C(O)C(C)O1 (some centres undefined),GI50,RXF 393 renal,0.0201 µg/mL
same,GI50,K-562 leukemia,0.0253 µg/mL and 0.017 µg/mL
same,GI50,IGROV1 ovarian,0.0472 µg/mL and 0.0289 µg/mL
same,GI50,NCI-H522 lung,0.0143 µg/mL and 0.0124 µg/mL
same,GI50,OVCAR-8 ovarian,0.0281 µg/mL and 0.0194 µg/mL
same,GI50,HOP-92 NSCLC,0.0278 µg/mL and 0.016 µg/mL
same,GI50,HT29 colon,0.029 µg/mL and 0.0205 µg/mL
same,GI50,HL-60(TB) leukemia,0.05 µg/mL and 0.0761 µg/mL
same,GI50,MALME-3M melanoma,0.0146 µg/mL and 0.0159 µg/mL
same,GI50,CCRF-CEM leukemia,0.0386 µg/mL and 0.0314 µg/mL
same,GI50,OVCAR-5 ovarian,0.0328 µg/mL and 0.113 µg/mL
same,GI50,SK-MEL-5 melanoma,0.0199 µg/mL
same,GI50,SNB-19 CNS,0.0238 µg/mL and 0.0179 µg/mL
same,GI50,UACC-257 melanoma,0.0259 µg/mL and 0.0361 µg/mL
same,GI50,786-0 renal,0.0255 µg/mL and 0.0152 µg/mL and 713 nM
same,GI50,SK-OV-3 ovarian,0.0437 µg/mL
same,GI50,SK-MEL-2 melanoma,0.0152 µg/mL and 0.0126 µg/mL
same,GI50,KM12 colon,0.0197 µg/mL and 0.0207 µg/mL
same,GI50,SF-295 CNS,0.0253 µg/mL
same,GI50,HCT-15 colon,0.286 µg/mL and 0.843 µg/mL
same,GI50,SF-539 CNS,0.0233 µg/mL and 0.0157 µg/mL
same,GI50,NCI-H226 lung,0.0179 µg/mL and 0.0115 µg/mL
same,GI50,SK-MEL-28 melanoma,0.02 µg/mL and 0.0182 µg/mL
same,GI50,OVCAR-3 ovarian,0.0235 µg/mL and 0.0222 µg/mL
same,GI50,RPMI-8226 leukemia,0.0265 µg/mL and 0.0214 µg/mL
same,GI50,COLO 205 colon,0.0144 µg/mL and 0.0182 µg/mL
same,GI50,CAKI-1 renal,0.11 µg/mL and 0.0722 µg/mL
same,GI50,MOLT-4 leukemia,0.0223 µg/mL
same,GI50,OVCAR-4 ovarian,0.0389 µg/mL and 0.0236 µg/mL
same,GI50,SNB-75 CNS,0.0141 µg/mL and 0.0224 µg/mL
same,GI50,UO-31 renal,0.132 µg/mL and 0.225 µg/mL
same,GI50,A549 NSCLC,0.027 µg/mL and 0.0212 µg/mL
same,GI50,SN12C renal,0.0272 µg/mL and 0.011 µg/mL
same,GI50,HCT-116 colon,0.0194 µg/mL and 0.0116 µg/mL
same,GI50,LOX IMVI melanoma,0.0262 µg/mL
same,GI50,MDA-MB-435,0.0222 µg/mL and 0.0246 µg/mL and 1.25 µM
same,GI50,SF-268 CNS,0.0242 µg/mL and 0.0192 µg/mL
same,GI50,TK-10 renal,0.0792 µg/mL and 0.288 µg/mL
same,GI50,NCI/ADR-RES ovarian,23 µg/mL and 0.633 µg/mL
same,GI50,UACC-62 melanoma,0.011 µg/mL
same,GI50,MCF7 breast,0.0143 µg/mL and 0.0152 µg/mL
same,GI50,U251 CNS,0.016 µg/mL and 0.0132 µg/mL
same,GI50,NCI-H23 lung,0.0235 µg/mL and 0.0192 µg/mL
same,GI50,SW-620 colon,0.0264 µg/mL and 0.0232 µg/mL
same,GI50,A498 renal,0.0084 µg/mL and 0.0164 µg/mL
same,GI50,HOP-62 NSCLC,0.0237 µg/mL and 0.02 µg/mL
same,GI50,EKVX NSCLC,0.042 µg/mL and 0.0335 µg/mL
same,GI50,HOP-18 NSCLC,0.000558 µM
same,GI50,HCC-2998 colon,0.0395 µg/mL and 0.0243 µg/mL
same,GI50,NCI-H460 lung,0.0183 µg/mL and 0.015 µg/mL
COc1ccc2cc(CN3CCC(C4CCNCC4)CC3)ccc2c1,TGI,PC-3 prostate,28 µM
same,TGI,RXF 393 renal,5.19 µM
same,TGI,K-562 leukemia,3.22 µM
same,TGI,T-47D breast,5.23 µM
same,TGI,IGROV1 ovarian,15.2 µM
same,TGI,MDA-MB-231 breast,5.08 µM
same,TGI,NCI-H522 lung,4.54 µM
same,TGI,OVCAR-8 ovarian,22.1 µM
same,TGI,HOP-92 NSCLC,5.75 µM
same,TGI,HT29 colon,2.65 µM
same,TGI,HL-60(TB) leukemia,3.38 µM
same,TGI,MALME-3M melanoma,3.02 µM
same,TGI,CCRF-CEM leukemia,12.7 µM
same,TGI,OVCAR-5 ovarian,20.4 µM
same,TGI,SK-MEL-5 melanoma,3.1 µM
same,TGI,SNB-19 CNS,18.3 µM
same,TGI,UACC-257 melanoma,3.47 µM
same,TGI,786-0 renal,3 µM
same,TGI,HS 578T breast,> 30.5 µM
same,TGI,SK-OV-3 ovarian,23.4 µM
same,TGI,SK-MEL-2 melanoma,3.81 µM
same,TGI,KM12 colon,5.25 µM
same,TGI,SF-295 CNS,3.5 µM
same,TGI,HCT-15 colon,6.44 µM
same,TGI,SF-539 CNS,4.03 µM
same,TGI,DU-145 prostate,15 µM
same,TGI,NCI-H226 lung,29.2 µM
same,TGI,SK-MEL-28 melanoma,3.27 µM
same,TGI,OVCAR-3 ovarian,15.8 µM
same,TGI,RPMI-8226 leukemia,4.61 µM
same,TGI,COLO 205 colon,3.25 µM
same,TGI,CAKI-1 renal,6.03 µM
same,TGI,MOLT-4 leukemia,4.84 µM
same,TGI,OVCAR-4 ovarian,31.3 µM
same,TGI,SNB-75 CNS,5.95 µM
same,TGI,UO-31 renal,6.29 µM
same,TGI,ACHN renal,11.9 µM
same,TGI,A549 NSCLC,36.8 µM
same,TGI,SN12C renal,23 µM
same,TGI,HCT-116 colon,3.73 µM
same,TGI,LOX IMVI melanoma,2.94 µM
same,TGI,MDA-MB-435,3.58 µM
same,TGI,SF-268 CNS,> 22.3 µM
same,TGI,SR leukemia,5.16 µM
same,TGI,MDA-N,4.19 µM
same,TGI,TK-10 renal,21.3 µM
same,TGI,NCI/ADR-RES ovarian,21 µM
same,TGI,UACC-62 melanoma,3.87 µM
same,TGI,MCF7 breast,6.32 µM
same,TGI,U251 CNS,3.74 µM
same,TGI,BT-549 breast,24.3 µM
same,TGI,NCI-H23 lung,33 µM
same,TGI,SW-620 colon,3.42 µM
same,TGI,A498 renal,14.7 µM
same,TGI,M14 melanoma,3.15 µM
same,TGI,HOP-62 NSCLC,8.98 µM
same,TGI,EKVX NSCLC,21.2 µM
same,TGI,HCC-2998 colon,1.41 µM
same,TGI,NCI-H460 lung,4.4 µM
